How the values were obtained:
Assay type in all cases: in vivo, NMRI nu/nu female mice
[1] = test system: NYH cells (small cell lung cancer); experiment: Tumour growth in nude mice inoculated with NYH cells; conditions: NYH tumours, 14 days
Method: (§1) The experiments were conducted with NMRI nu/nu female mice (M&B, Ry, Denmark) kept under semi-sterile conditions. The mice were 6 weeks old on arrival, and they were allowed to acclimatise for approximately 3 weeks before the experiments were initiated. The bedding was autoclaved at 121° C. for 20 minutes, the food was sterilised by irradiation, and the drinking water was filtered through a 0.2 μm filter. All handling of the mice was done in laminar flow benches.
Each experiment employed 40-60 mice which were inoculated in both flanks and left for the tumours to develop. Following that, the mice were divided into groups, each containing 10 mice and thus 18-20 tumors, according to the size of the tumour, i.e. large, medium or small. Unless stated otherwise all doses have been given daily.
(§2) The tumours were measured using digital callipers before treatment start (=baseline), twice weekly for the duration of the study, and at the end of the study. Tumour area (A) was calculated as the product of the two measured perpendicular diameters; A=d1×d2. For mice with only one tumour, the area of this tumour was calculated and used in the statistical analysis. For mice with two tumours, the average of the two tumour areas was calculated and used in the statistical analysis.
For each animal, an individual curve of the tumour areas observed during the study was plotted against time. The trend was an increasing growth rate of the tumours. In order to ensure an approximate linear correspondence between tumour data and time, the observations were transformed by taking the square root of the tumour areas, corresponding to tumour size in one dimension. As a summary measure of the repeated measurements of tumour areas during the study (tumour growth rate), the estimated slope of the individual curves of the square root transformed curves was used [Matthews, Br. Med. J., 300, 230-235, 1990]. The slope should be interpreted as a measure of the tumour growth rate and was estimated using linear regression analysis by time on the observations during the study. Within each group, the mean of the tumour growth rate was calculated.
The NYH cell line originates from a patient with small cell lung cancer. The cell line was obtained from Rigshospitalet, Copenhagen, Denmark.
The mice were inoculated with 1×10^7 NYH cells in 0.2 ml in each flank, and the tumours were left to grow for approximately 4 days. The duration of the dosing was 14 days.

[2] = test system: HT 1080 cells (human fibrosarcoma); experiment: Tumour growth in nude mice inoculated with HT 1080 cells; conditions: HT 1080 tumours, 14 days
Method: The experiments were conducted with NMRI nu/nu female mice (M&B, Ry, Denmark) kept under semi-sterile conditions. The mice were 6 weeks old on arrival, and they were allowed to acclimatise for approximately 3 weeks before the experiments were initiated. The bedding was autoclaved at 121° C. for 20 minutes, the food was sterilised by irradiation, and the drinking water was filtered through a 0.2 μm filter. All handling of the mice was done in laminar flow benches. Each experiment employed 40-60 mice which were inoculated in both flanks and left for the tumours to develop. Following that, the mice were divided into groups, each containing 10 mice and thus 18-20 tumors, according to the size of the tumour, i.e. large, medium or small. Unless stated otherwise all doses have been given daily. The tumours were measured using digital callipers before treatment start (=baseline), twice weekly for the duration of the study, and at the end of the study. Tumour area (A) was calculated as the product of the two measured perpendicular diameters; […] For mice with only one tumour, the area of this tumour was calculated and used in the statistical analysis. For mice with two tumours, the average of the two tumour areas was calculated and used in the statistical analysis. For each animal, an individual curve of the tumour areas observed during the study was plotted against time. The trend was an increasing growth rate of the tumours. In order to ensure an approximate linear correspondence between tumour data and time, the observations were transformed by taking the square root of the tumour areas, corresponding to tumour size in one dimension. As a summary measure of the repeated measurements of tumour areas during the study (tumour growth rate), the estimated slope of the individual curves of the square root transformed curves was used [Matthews, Br. Med. […] The slope should be interpreted as a measure of the tumour growth rate and was estimated using linear regression analysis by time on the observations during the study. Within each group, the mean of the tumour growth rate was calculated. The HT 1080 cell line originates from a patient with human fibrosarcoma, and it was obtained from ATCC. The mice were inoculated with 2×10^6 HT 1080 cells in 0.2 ml in each flank, and the tumours were left to grow for approximately 4 days.

[3] = test system: Colo 320 DM cells (human colon cancer); experiment: Tumour growth in nude mice inoculated with Colo 320 DM cells; conditions: Colo 320 DM tumours, 21 days, control 0.55
Method: as §1
Each experiment employed 40-60 mice which were inoculated in both flanks and left for the tumours to develop. Following that, the mice were divided into groups, each containing 10 mice and thus 18-20 tumors, according to the size of the tumour, i.e. large, medium or small. […]
as §2
For each animal, an individual curve of the tumour areas observed during the study was plotted against time. […] Within each group, the mean of the tumour growth rate was calculated. […]

Structure (SMILES): N.N.[Cl][Pt][Cl] [Cisplatin]
- Mean increment/day ([1]; cisplatin 5 mg/kg i.p. once weekly, control 0.90): 0.32 mm/day

Structure (SMILES): N#CNC(=Nc1ccncc1)NCCCCCCOc1ccc(Cl)cc1 [Compound A, N-cyano-N′-(6-(4-chlorophenoxy)hexyl)-N″(4-pyridyl)guanidine]
- Mean increment/day ([1]; compound A 15 mg/kg p.o. daily, cisplatin experiment, control 0.90): 0.02 mm/day
- Mean increment/day ([1]; compound A 15 mg/kg p.o. daily, cyclophosphamide experiment, control 0.61): 0.26 mm/day
- Mean increment/day ([1]; compound A 15 mg/kg p.o. daily, etoposide experiment, control 0.67): 0.34 mm/day
- Mean increment/day ([2]; compound A 50 mg/kg p.o. daily, TNP-470 experiment, control 0.73): 0.14 mm/day
- Mean increment/day ([2]; compound A 50 mg/kg p.o. daily, etoposide experiment, control 0.45): 0.21 mm/day
- Mean increment/day ([2]; compound A 50 mg/kg p.o. daily, paclitaxel experiment, control 0.67): 0.30 mm/day
- Mean increment/day ([2]; compound A 50 mg/kg p.o. daily, seocalcitol experiment, control 0.98): 0.24 mm/day
- Mean increment/day ([3]; compound A 50 mg/kg p.o. daily): 0.22 mm/day

Structure (SMILES): O=P1(N(CCCl)CCCl)NCCCO1 (centres unmarked) [Cyclophosphamide]
- Mean increment/day ([1]; cyclophosphamide 7 mg/kg p.o. daily, control 0.61): 0.40 mm/day

Structure (SMILES): COc1cc([C@@H]2c3cc4c(cc3[C@@H](O[C@@H]3O[C@@H]5CO[C@@H](C)O[C@H]5[C@H](O)[C@H]3O)[C@H]3COC(=O)[C@H]23)OCO4)cc(OC)c1O [Etoposide]
- Mean increment/day ([1]; etoposide 10 mg/kg p.o. daily, control 0.67): 0.41 mm/day
- Mean increment/day ([2]; etoposide 10 mg/kg p.o. daily, control 0.45): -0.01 mm/day

Structure (SMILES): CC(=O)O[C@H]1C(=O)[C@@]2(C)[C@H]([C@H](OC(=O)c3ccccc3)[C@]3(O)C[C@H](OC(=O)[C@H](O)[C@@H](NC(=O)c4ccccc4)c4ccccc4)C(C)=C1C3(C)C)[C@]1(OC(C)=O)CO[C@@H]1C[C@@H]2O [Paclitaxel]
- Mean increment/day ([2]; paclitaxel 1 mg/kg s.c. daily, control 0.67): 0.39 mm/day
- Mean increment/day ([2]; paclitaxel 2 mg/kg s.c. daily, control 0.67): 0.15 mm/day

Structure (SMILES): C=C1/C(=C\C=C2/CCC[C@]3(C)[C@@H]([C@H](C)/C=C/C=C/C(O)(CC)CC)CC[C@@H]23)C[C@@H](O)C[C@@H]1O [Seocalcitol]
- Mean increment/day ([2]; seocalcitol 2 μg/kg p.o. daily, control 0.98): 0.95 mm/day

Structure (SMILES): CO[C@@H]1[C@H](OC(=O)NC(=O)CCl)CC[C@]2(CO2)[C@H]1[C@@]1(C)O[C@@H]1CC=C(C)C [TNP-470]
- Mean increment/day ([2]; TNP-470 9 mg/kg s.c. daily, control 0.73): 0.51 mm/day
- Mean increment/day ([3]; TNP-470 9 mg/kg s.c. daily): 0.29 mm/day
